Test results published in PubChem BioAssay AID256 (DTP/NCI, 2004).
“And” between values parts separate entries of the source, which are not always exact repeats. Equal values may be shown once. Toxic doses and inconclusive results are not listed. The calls were made as follows: active = survival T/C of 150% or more; inactive = T/C below 125% in these data.

Test system: CD2F1 mice, L1210 leukemia ip, survival T/C
Test: NCI In Vivo Anticancer Drug Screen. Data for tumor model L1210 Leukemia (intraperitoneal) in CD2F1 (CDF1) mice
Details: higher = longer survival
Summary of the method: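 Compound-dosed mice with transplantable tumor versus matched vehicle controls; endpoint ratio T/C reported.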

Measured: T/C

O=C1NC2(CCCCC2)C(=O)N1CCN(CCCl)CCCl
active: endpoint: median survival time, dose: 6.0 mg/kg/injection, schedule: Q01DX009 (ip), vehicle: Klucel (hydroxypropylcellulose) (HPC) 153 % of control | endpoint: median survival time, dose: 9.0 mg/kg/injection, schedule: Q01DX009 (ip), vehicle: Klucel (hydroxypropylcellulose) (HPC) 157 % of control and 164 % of control | endpoint: median survival time, dose: 13.0 mg/kg/injection, schedule: Q01DX009 (ip), vehicle: Klucel (hydroxypropylcellulose) (HPC) 164 % of control and 176 % of control
inactive: endpoint: median survival time, dose: 0.5 mg/kg/injection, schedule: Q03HX024 (ip), vehicle: Klucel (hydroxypropylcellulose) (HPC) 98 % of control | endpoint: median survival time, dose: 1.0 mg/kg/injection, schedule: Q01DX009 (ip), vehicle: Klucel (hydroxypropylcellulose) (HPC) 101 % of control | endpoint: median survival time, dose: 1.0 mg/kg/injection, schedule: Q01DX009 (sc), vehicle: Klucel (hydroxypropylcellulose) (HPC) 98 % of control | endpoint: median survival time, dose: 1.0 mg/kg/injection, schedule: Q03HX016 (ip), vehicle: Klucel (hydroxypropylcellulose) (HPC) 96 % of control | endpoint: median survival time, dose: 1.0 mg/kg/injection, schedule: Q03HX024 (ip), vehicle: Klucel (hydroxypropylcellulose) (HPC) 98 % of control | endpoint: median survival time, dose: 2.0 mg/kg/injection, schedule: Q01DX009 (ip), vehicle: Klucel (hydroxypropylcellulose) (HPC) 101 % of control | endpoint: median survival time, dose: 2.0 mg/kg/injection, schedule: Q01DX009 (sc), vehicle: Klucel (hydroxypropylcellulose) (HPC) 101 % of control | endpoint: median survival time, dose: 2.0 mg/kg/injection, schedule: Q03HX008 (ip), vehicle: Klucel (hydroxypropylcellulose) (HPC) 110 % of control | endpoint: median survival time, dose: 2.0 mg/kg/injection, schedule: Q03HX016 (ip), vehicle: Klucel (hydroxypropylcellulose) (HPC) 104 % of control | endpoint: median survival time, dose: 2.0 mg/kg/injection, schedule: Q03HX024 (ip), vehicle: Klucel (hydroxypropylcellulose) (HPC) 106 % of control | endpoint: median survival time, dose: 4.0 mg/kg/injection, schedule: Q01DX009 (ip), vehicle: Klucel (hydroxypropylcellulose) (HPC) 107 % of control | endpoint: median survival time, dose: 4.0 mg/kg/injection, schedule: Q01DX009 (oral), vehicle: Klucel (hydroxypropylcellulose) (HPC) 123 % of control | endpoint: median survival time, dose: 4.0 mg/kg/injection, schedule: Q01DX009 (sc), vehicle: Klucel (hydroxypropylcellulose) (HPC) 103 % of control | endpoint: median survival time, dose: 4.0 mg/kg/injection, schedule: Q03HX008 (ip), vehicle: Klucel (hydroxypropylcellulose) (HPC) 106 % of control | endpoint: median survival time, dose: 4.0 mg/kg/injection, schedule: Q03HX016 (ip), vehicle: Klucel (hydroxypropylcellulose) (HPC) 103 % of control | endpoint: median survival time, dose: 4.0 mg/kg/injection, schedule: Q03HX024 (ip), vehicle: Klucel (hydroxypropylcellulose) (HPC) 109 % of control | endpoint: median survival time, dose: 4.0 mg/kg/injection, schedule: Q04DX003 (ip), vehicle: Klucel (hydroxypropylcellulose) (HPC) 100 % of control | endpoint: median survival time, dose: 8.0 mg/kg/injection, schedule: Q01DX009 (ip), vehicle: Klucel (hydroxypropylcellulose) (HPC) 106 % of control | endpoint: median survival time, dose: 8.0 mg/kg/injection, schedule: Q01DX009 (oral), vehicle: Klucel (hydroxypropylcellulose) (HPC) 115 % of control | endpoint: median survival time, dose: 8.0 mg/kg/injection, schedule: Q01DX009 (sc), vehicle: Klucel (hydroxypropylcellulose) (HPC) 114 % of control | endpoint: median survival time, dose: 8.0 mg/kg/injection, schedule: Q03HX008 (ip), vehicle: Klucel (hydroxypropylcellulose) (HPC) 115 % of control | endpoint: median survival time, dose: 8.0 mg/kg/injection, schedule: Q03HX016 (ip), vehicle: Klucel (hydroxypropylcellulose) (HPC) 111 % of control | endpoint: median survival time, dose: 8.0 mg/kg/injection, schedule: Q03HX024 (ip), vehicle: Klucel (hydroxypropylcellulose) (HPC) 122 % of control | endpoint: median survival time, dose: 8.0 mg/kg/injection, schedule: Q04DX003 (ip), vehicle: Klucel (hydroxypropylcellulose) (HPC) 103 % of control | endpoint: median survival time, dose: 8.0 mg/kg/injection, schedule: Q08DX002 (ip), vehicle: Klucel (hydroxypropylcellulose) (HPC) 106 % of control | endpoint: median survival time, dose: 16.0 mg/kg/injection, schedule: Q01DX001 (ip), vehicle: Klucel (hydroxypropylcellulose) (HPC) 116 % of control | endpoint: median survival time, dose: 16.0 mg/kg/injection, schedule: Q01DX001 (sc), vehicle: Klucel (hydroxypropylcellulose) (HPC) 92 % of control | endpoint: median survival time, dose: 16.0 mg/kg/injection, schedule: Q01DX009 (ip), vehicle: Klucel (hydroxypropylcellulose) (HPC) 112 % of control | endpoint: median survival time, dose: 16.0 mg/kg/injection, schedule: Q01DX009 (oral), vehicle: Klucel (hydroxypropylcellulose) (HPC) 112 % of control | endpoint: median survival time, dose: 16.0 mg/kg/injection, schedule: Q01DX009 (sc), vehicle: Klucel (hydroxypropylcellulose) (HPC) 107 % of control | endpoint: median survival time, dose: 16.0 mg/kg/injection, schedule: Q03HX008 (ip), vehicle: Klucel (hydroxypropylcellulose) (HPC) 122 % of control | endpoint: median survival time, dose: 16.0 mg/kg/injection, schedule: Q04DX003 (ip), vehicle: Klucel (hydroxypropylcellulose) (HPC) 113 % of control | endpoint: median survival time, dose: 16.0 mg/kg/injection, schedule: Q08DX002 (ip), vehicle: Klucel (hydroxypropylcellulose) (HPC) 109 % of control | endpoint: median survival time, dose: 32.0 mg/kg/injection, schedule: Q01DX001 (ip), vehicle: Klucel (hydroxypropylcellulose) (HPC) 122 % of control | endpoint: median survival time, dose: 32.0 mg/kg/injection, schedule: Q01DX001 (oral), vehicle: Klucel (hydroxypropylcellulose) (HPC) 100 % of control | endpoint: median survival time, dose: 32.0 mg/kg/injection, schedule: Q01DX001 (sc), vehicle: Klucel (hydroxypropylcellulose) (HPC) 101 % of control | endpoint: median survival time, dose: 32.0 mg/kg/injection, schedule: Q01DX009 (oral), vehicle: Klucel (hydroxypropylcellulose) (HPC) 123 % of control | endpoint: median survival time, dose: 32.0 mg/kg/injection, schedule: Q01DX009 (sc), vehicle: Klucel (hydroxypropylcellulose) (HPC) 106 % of control | endpoint: median survival time, dose: 32.0 mg/kg/injection, schedule: Q04DX003 (ip), vehicle: Klucel (hydroxypropylcellulose) (HPC) 114 % of control | endpoint: median survival time, dose: 32.0 mg/kg/injection, schedule: Q08DX002 (ip), vehicle: Klucel (hydroxypropylcellulose) (HPC) 114 % of control | endpoint: median survival time, dose: 64.0 mg/kg/injection, schedule: Q01DX001 (ip), vehicle: Klucel (hydroxypropylcellulose) (HPC) 117 % of control | endpoint: median survival time, dose: 64.0 mg/kg/injection, schedule: Q01DX001 (oral), vehicle: Klucel (hydroxypropylcellulose) (HPC) 101 % of control | endpoint: median survival time, dose: 64.0 mg/kg/injection, schedule: Q01DX001 (sc), vehicle: Klucel (hydroxypropylcellulose) (HPC) 102 % of control | endpoint: median survival time, dose: 64.0 mg/kg/injection, schedule: Q01DX009 (oral), vehicle: Klucel (hydroxypropylcellulose) (HPC) 124 % of control | endpoint: median survival time, dose: 64.0 mg/kg/injection, schedule: Q08DX002 (ip), vehicle: Klucel (hydroxypropylcellulose) (HPC) 119 % of control | endpoint: median survival time, dose: 128.0 mg/kg/injection, schedule: Q01DX001 (oral), vehicle: Klucel (hydroxypropylcellulose) (HPC) 104 % of control | endpoint: median survival time, dose: 128.0 mg/kg/injection, schedule: Q01DX001 (sc), vehicle: Klucel (hydroxypropylcellulose) (HPC) 105 % of control | endpoint: median survival time, dose: 128.0 mg/kg/injection, schedule: Q08DX002 (ip), vehicle: Klucel (hydroxypropylcellulose) (HPC) 110 % of control | endpoint: median survival time, dose: 256.0 mg/kg/injection, schedule: Q01DX001 (ip), vehicle: Klucel (hydroxypropylcellulose) (HPC) 116 % of control | endpoint: median survival time, dose: 256.0 mg/kg/injection, schedule: Q01DX001 (oral), vehicle: Klucel (hydroxypropylcellulose) (HPC) 107 % of control | endpoint: median survival time, dose: 256.0 mg/kg/injection, schedule: Q01DX001 (sc), vehicle: Klucel (hydroxypropylcellulose) (HPC) 104 % of control | endpoint: median survival time, dose: 512.0 mg/kg/injection, schedule: Q01DX001 (oral), vehicle: Klucel (hydroxypropylcellulose) (HPC) 107 % of control

Nc1ncnc2nc(-c3cccc(CNC(=O)c4ccccc4S(=O)(=O)F)c3)[nH]c12
inactive: endpoint: mean survival time, dose: 100.0 mg/kg/injection, schedule: Q01DX001 (ip), vehicle: saline with Tween-80 87 % of control | endpoint: mean survival time, dose: 400.0 mg/kg/injection, schedule: Q01DX001 (ip), vehicle: saline with Tween-80 87 % of control
